Test results reported in US10092584B2 (Achillion Pharmaceuticals, Inc., priority 2015, dated 2018).
pIC50: −log10 of the molar value. Counter-ions that a name gives are not always drawn. Like-named read-outs stand apart in the source and are kept apart here.

Target: T1, Human Factor D (Homo sapiens, UniProt P00746)
T1 construct: purified from human serum; purchased Complement Technology, Inc; host or cells: human serum
Experiment: Human Factor D assay (Example 8)
Type: biochemical
Procedure, shortened: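 IC50 values derive from nonlinear regression of Factor D reaction rates against compound concentration. The enzyme, purified from human serum, is used at 80 nM final with a 5 min room-temperature compound preincubation in 50 mM Tris, 1M NaCl, pH 7.5, before 100 μM Z-L-Lys-SBzl plus 100 μM DTNB are added.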

[1] = Table 3, Human Factor D 80 nM, substrate Z-L-Lys-SBzl, read-out: IC50 (Stars)
[2] = Table 1, Human Factor D 80 nM, substrate Z-L-Lys-SBzl, read-out: IC50
[3] = Table 2, Human Factor D 80 nM, substrate Z-L-Lys-SBzl, read-out: IC50

T1 sequence (P00746 26-253): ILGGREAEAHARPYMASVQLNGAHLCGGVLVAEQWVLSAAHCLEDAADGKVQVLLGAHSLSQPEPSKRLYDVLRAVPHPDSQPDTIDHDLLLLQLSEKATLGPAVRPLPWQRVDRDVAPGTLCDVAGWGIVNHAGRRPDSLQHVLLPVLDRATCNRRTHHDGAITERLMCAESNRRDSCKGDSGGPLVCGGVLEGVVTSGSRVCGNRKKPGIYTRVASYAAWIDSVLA

| Compound | pIC50 [1] | pIC50 [2] | further results |
| --- | --- | --- | --- |
| NC(=O)c1nn(CC(=O)N2C[C@H](F)C[C@H]2C(=O)Nc2cccc(-c3ccc4nc[nH]c4c3F)c2F)c2ccccc12 [Compound 456, 1-(2-((2S,4R)-4-fluoro-2-((2-fluoro-3-(7-fluoro-1H-benzo[d]imidazol-6-yl)phenyl)carba-moyl)pyrrolidin-1-yl)-2-oxoethyl)-1H-indazole-3-carboxamide] | > 6.00 |  |  |
| NC(=O)c1cn(CC(=O)N2C[C@H](F)C[C@H]2c2nc3cc(-c4ccccc4Cl)ccc3[nH]2)c2ccccc12 [Compound 121, 1-(2-((2S,4R)-2-(5-(2-chlorophenyl)-1H-benzo[d]imidazol-2-yl)-4-fluoropyrrolidin-1-yl)-2-oxoethyl)-1H-indole-3-carboxamide] |  |  | pIC50: < 5.00 |
| NC(=O)c1nn(CC(=O)N2C[C@H](F)C[C@H]2C(=O)Nc2cccc(-c3c(F)cc(F)cc3Cl)c2)c2cnccc12 [Compound 101, 1-(2-((2S,4R)-2-(2′-chloro-4′,6′-difluorobiphenyl-3-ylcarbamoyl)-4-fluoropyrrolidin-1-yl)-2-oxoethyl)-1H-pyrazolo[3,4-c]pyridine-3-carboxamide] |  | > 6.00 |  |
| CC(=O)c1cn(C(C)C(=O)N2C[C@H](F)C[C@H]2C(=O)NCc2cccc(Cl)c2F)c2ccccc12 (stereo partly drawn) [Compound 55] |  | < 5.00 |  |
| CC(=O)c1cn(CC(=O)N2C[C@H](F)C[C@H]2C(=O)Nc2cccc(-c3ccccc3Cl)c2F)c2c(C#N)cccc12 [Compound 79, (2S,4R)-1-(2-(3-acetyl-7-cyano-1H-indol-1-yl)acetyl)-N-(2′-chloro-2-fluorobiphenyl-3-yl)-4-fluoropyrrolidine-2-carboxamide] |  |  | pIC50: > 6.00 |
| NC(=O)c1nn(CC(=O)N2C[C@@H](O)C[C@H]2C(=O)Nc2cccc(-c3ccccc3Cl)c2F)c2ccccc12 [Compound 354, 1-(2-((2S,4S)-2-((2′-chloro-2-fluoro-[1,1′-biphenyl]-3-yl)carbamoyl)-4-hydroxypyrrolidin-1-yl)-2-oxoethyl)-1H-indazole-3-carboxamide] | > 6.00 |  |  |
| NC(=O)c1nn(CC(=O)N2C(=O)CC[C@H]2C(=O)Nc2cccc(-c3ccccc3Cl)c2F)c2ccccc12 [Compound 135, (S)-1-(2-(2-((2′-Chloro-2-fluoro-[1,1′-biphenyl]-3-yl)carbamoyl)-5-oxopyrrolidin-1-yl)-2-oxoethyl)-1H-indazole-3-carboxamide] |  |  | pIC50 [3]: > 6.00 |
| CC(=O)c1cn(CC(=O)N2C[C@H](F)C[C@H]2C(=O)Nc2cccc(-c3ccccc3Cl)c2F)c2cc(Cl)ccc12 [Compound 328, (2S,4R)-1-(2-(3-acetyl-6-chloro-1H-indol-1-yl)acetyl)-N-(2′-chloro-2-fluoro-[1,1′-biphenyl]-3-yl)-4-fluoropyrrolidine-2-carboxamide] | > 6.00 |  |  |
| NC(=O)c1nn(CC(=O)N2CC[C@@H](N)[C@H]2C(=O)Nc2cccc(-c3ccccc3Cl)c2F)c2ccccc12 [Compound 356, 1-(2-((2S,3R)-3-amino-2-((2′-chloro-2-fluoro-[1,1′-biphenyl]-3-yl)carbamoyl)pyrrolidin-1-yl)-2-oxoethyl)-1H-indazole-3-carboxamide] | > 6.00 |  |  |
| CC(=O)c1nn(CC(=O)N2C[C@H](F)C[C@H]2C(=O)Nc2cccc(-c3ccc4c(c3)CCCN4)c2F)c2ccccc12 [Compound 449, (2S,4R)-1-(2-(3-Acetyl-1H-indazol-1-yl)acetyl)-4-fluoro-N-(2-fluoro-3-(1,2,3,4-tetrahydroquinolin-6-yl)phenyl)pyrrolidine-2-carboxamide] | > 6.00 |  |  |
| CC(=O)c1cn(CC(=O)N2C[C@H](F)C[C@H]2C(=O)Nc2cccc(Br)n2)c2ccc(C3(NC(=O)c4ncccn4)CC3)cc12 [Compound 119, N-(1-(3-acetyl-1-(2-((2S,4R)-2-(6-bromopyridin-2-ylcarbamoyl)-4-fluoropyrrolidin-1-yl)-2-oxoethyl)-1H-indol-5-yl)cyclopropyl) pyrimidine-2-carboxamide] |  |  | pIC50: > 6.00 |
| Cc1sc(Cl)cc1NC(=O)[C@@H]1C[C@@H](F)CN1C(=O)Cn1nc(C(N)=O)c2ccncc21 [Compound 351] | 5.00 to 6.00 |  |  |
| CC(=O)c1ccc(Cl)c(-c2cccc(NC(=O)[C@@H]3C[C@@H](F)CN3C(=O)Cn3nc(C(N)=O)c4ccccc43)c2F)c1 [Compound 117, 1-(2-((2S,4R)-2-((5′-Acetyl-2′-chloro-2-fluoro-[1,1′-biphenyl]-3-yl)carbamoyl)-4-fluoropyrrolidin-1-yl)-2-oxoethyl)-1H-indazole-3-carboxamide] |  |  | pIC50: > 6.00 |
| COc1ccc2c(O[C@@H]3C[C@@H](C(=O)NCc4cccc(Cl)c4F)N(C(=O)Cn4cc(C(C)=O)c5ccccc54)C3)cc(-c3ccccc3)nc2c1 [Compound 29, (2S,4R)-1-(2-(3-acetyl-1H-indol-1-yl)acetyl)-N-(3-chloro-2-fluorobenzyl)-4-(7-methoxy-2-phenylquinolin-4-yloxy)pyrrolidine-2-carboxamide] |  |  | pIC50: < 5.00 |
| O=C(c1cn(CC(=O)N2[C@@H]3C[C@@H]3C[C@H]2C(=O)NCc2cccc(Cl)c2F)c2ccccc12)C1CC1 [Compound 22, (1R,3S,5R)-N-(3-chloro-2-fluorobenzyl)-2-(2-(3-(cyclopropanecarbonyl)-1H-indol-1-yl)acetyl)-2-azabicyclo[3.1.0] hexane-3-carboxamide] |  |  | pIC50: > 6.00 |
| CC(=O)c1nn(CC(=O)N2C[C@H](F)C[C@H]2C(=O)Nc2cccc(Br)n2)c2ccccc12 [Compound 388, (2S,4R)-1-(2-(3-acetyl-1H-indazol-1-yl)acetyl)-N-(6-bromopyridin-2-yl)-4-fluoropyrrolidine-2-carboxamide] | > 6.00 |  |  |
| N#Cc1cn(CC(=O)N2C[C@H](F)C[C@H]2C(=O)NCc2cccc(Cl)c2F)c2ccccc12 [Compound 36, (2S,4R)-N-(3-chloro-2-fluorobenzyl)-1-(2-(3-cyano-1H-indol-1-yl)acetyl)-4-fluoropyrrolidine-2-carboxamide] |  | > 6.00 |  |
| CC(=O)c1cn(CC(=O)N2C[C@H](F)C[C@H]2C(=O)Nc2cccc(-c3cc(F)c(F)cc3Cl)c2F)c2ccccc12 [Compound 82, (2S,4R)-1-(2-(3-acetyl-1H-indol-1-yl)acetyl)-N-(2′-chloro-2,4′,5′-trifluorobiphenyl-3-yl)-4-fluoropyrrolidine-2-carboxamide] |  |  | pIC50: > 6.00 |
| CC(=O)c1cn(CC(=O)N2C[C@H](F)C[C@H]2C(=O)NCc2cccc(Cl)c2F)c2cc(C(=N)N)ccc12 [Compound 382, (2S,4R)-1-(2-(3-Acetyl-6-carbamimidoyl-1H-indol-1-yl)acetyl)-N-(3-chloro-2-fluorobenzyl)-4-fluoropyrrolidine-2-carboxamide TFA] | > 6.00 |  |  |
| NC(=O)N1CC(NC(=O)[C@@H]2CCC[C@H]2C(=O)NCc2cccc(Cl)c2F)c2ccccc21 (stereo partly drawn) [Compound 26, (1R,2R)-N1-(1-carbamoylindolin-3-yl)-N2-(3-chloro-2-fluorobenzyl)cyclo-pentane-1,2-dicarboxamide] |  | < 5.00 |  |
| O=C(NCc1cccc(Cl)c1F)[C@@H]1C[C@@H](F)CN1C(=O)Cn1nc(P(=O)(O)O)c2ccncc21 [Compound 57] |  | < 5.00 |  |
| CC(=O)c1cn(C(C)(C)C(=O)N2C[C@H](F)C[C@H]2C(=O)NCc2cccc(Cl)c2F)c2ccccc12 [Compound 56] |  | < 5.00 |  |
| NC(=O)c1cn(CC(=O)N2C[C@H](F)C[C@H]2C(=O)Nc2cccc(-c3ccccc3Cl)c2F)c2sccc12 [Compound 98, 6-(2-((2S,4R)-2-(2′-chloro-2-fluorobiphenyl-3-ylcarbamoyl)-4-fluoropyrrolidin-1-yl)-2-oxoethyl)-6H-thieno[2,3-b]pyrrole-4-carboxamide] |  | > 6.00 |  |
| CC(=O)c1nn(CC(=O)N2C[C@H](F)C[C@H]2C(=O)Nc2cccc(-c3ccc4c(c3)NCC4)c2F)c2ccccc12 [Compound 437, (2S,4R)-1-(2-(3-acetyl-1H-indazol-1-yl)acetyl)-4-fluoro-N-(2-fluoro-3-(indolin-6-yl)phenyl)pyrroli-dine-2-carboxamide] | > 6.00 |  |  |
| NC(=O)n1cc(NC(=O)C2=C(C(=O)NCc3cccc(Cl)c3F)CCC2)c2ccccc21 [Compound 31, N1-(1-carbamoyl-1H-indol-3-yl)-N2-(3-chloro-2-fluorobenzyl)cyclo-pent-1-ene-1,2-dicarboxamide] |  | < 5.00 |  |
| NC(=O)c1nn(CC(=O)N2[C@@H]3C[C@@H]3C[C@H]2C(=O)Nc2cccc(-c3ccccc3Cl)c2F)cc1Br [Compound 77, (1R,3S,5R)-2-(2-(4-Bromo-3-carbamoyl-1H-pyrazol-1-yl)acetyl)-N-(2′-chloro-2-fluoro-[1,1′-biphenyl]-3-yl)-2-azabicyclo[3.1.0]hexane-3-carboxamide] |  | > 6.00 |  |
| COc1ncc(-c2cn(CC(=O)N3C[C@H](F)C[C@H]3C(=O)Nc3cccc(-c4ccccc4Cl)c3F)nc2C(N)=O)cn1 [Compound 110, 1-(2-((2S,4R)-2-((2′-Chloro-2-fluoro-[1,1′-biphenyl]-3-yl)carbamoyl)-4-fluoropyrrolidin-1-yl)-2-oxoethyl)-4-(2-methoxypyrimidin-5-yl)-1H-pyrazole-3-carboxamide] |  | < 5.00 |  |
| CC(=O)c1nn(CC(=O)N2C[C@H](F)C[C@H]2C(=O)Nc2cccc(SC(F)(F)F)c2)c2cnccc12 [Compound 45, (2S,4R)-1-(2-(3-acetyl-1H-pyrazolo[3,4-c]pyridin-1-yl)acetyl)-4-fluoro-N-(3-(trifluoromethylthio)phenyl)pyrrolidine-2-carboxamide] |  | > 6.00 |  |
| O=C(Nc1cccc(-c2ccccc2Cl)c1F)[C@@H]1C[C@@H](F)CN1C(=O)Cn1c(=O)[nH]c2ccccc21 [Compound 142, (2S,4R)-N-(2′-chloro-2-fluorobiphenyl-3-yl)-4-fluoro-1-(2-(2-oxo-2,3-dihydro-1H-benzo[d]imidazol-1-yl)acetyl) pyrrolidine-2-carboxamide] |  |  | pIC50 [3]: > 6.00 |
| O=C(NCc1cccc(Cl)c1F)[C@@H]1C[C@@H](F)CN1C(=O)Cn1cc(-c2cnco2)c2ccccc21 [Compound 452, (2S,4R)—N-(3-chloro-2-fluorobenzyl)-4-fluoro-1-(2-(3-(oxazol-5-yl)-1H-indol-1-yl)acetyl)pyrrolidine-2-carboxamide] | > 6.00 |  |  |
